Details: Liquid, Vibrating tube method

CCCC[n+]1cccc(C)c1.F[B-](F)(F)F [1-butyl-3-methylpyridinium tetrafluoroborate]
Details | mass density [kg/m3]
283.12 K, 2024 kPa | 1194.21
283.13 K, 5410 kPa | 1195.69
283.14 K, 10608 kPa | 1197.94
283.16 K, 101 kPa | 1192.91
283.16 K, 20395 kPa | 1202.09
283.16 K, 29989 kPa | 1206.06
283.16 K, 40399 kPa | 1210.24
283.16 K, 50021 kPa | 1214
283.16 K, 59880 kPa | 1217.75
283.16 K, 70001 kPa | 1221.48
283.16 K, 80055 kPa | 1225.07
283.16 K, 89979 kPa | 1228.5
283.16 K, 99226 kPa | 1231.6
293.13 K, 2373 kPa | 1187.65
293.15 K, 101 kPa | 1185.85
293.15 K, 5192 kPa | 1188.92
293.15 K, 19915 kPa | 1195.44
293.15 K, 29975 kPa | 1199.74
293.15 K, 40033 kPa | 1203.9
293.15 K, 49990 kPa | 1207.91
293.15 K, 60026 kPa | 1211.82
293.15 K, 69993 kPa | 1215.58
293.15 K, 90002 kPa | 1222.75
293.15 K, 99008 kPa | 1225.82
293.16 K, 79917 kPa | 1219.2
293.17 K, 10105 kPa | 1191.13
298.13 K, 101 kPa | 1182.41
298.15 K, 1023 kPa | 1183.65
298.15 K, 5014 kPa | 1185.49
298.15 K, 10024 kPa | 1187.78
298.15 K, 19956 kPa | 1192.22
298.15 K, 29784 kPa | 1196.48
298.15 K, 39954 kPa | 1200.76
298.15 K, 49921 kPa | 1204.82
298.15 K, 59784 kPa | 1208.71
298.15 K, 69521 kPa | 1212.43
298.15 K, 79326 kPa | 1216.05
298.15 K, 89784 kPa | 1219.77
298.15 K, 99965 kPa | 1223.26
313.13 K, 101 kPa | 1172.19
313.13 K, 10051 kPa | 1177.79
313.15 K, 2471 kPa | 1174.15
313.15 K, 5142 kPa | 1175.44
313.15 K, 39901 kPa | 1191.32
313.15 K, 50020 kPa | 1195.6
313.15 K, 59990 kPa | 1199.68
313.15 K, 70046 kPa | 1203.63
313.15 K, 79830 kPa | 1207.34
313.16 K, 30021 kPa | 1186.99
313.16 K, 89989 kPa | 1211.04
313.17 K, 19949 kPa | 1182.42
313.17 K, 99194 kPa | 1214.26
323.14 K, 101 kPa | 1165.48
333.13 K, 2503 kPa | 1160.47
333.14 K, 101 kPa | 1158.81
333.14 K, 39760 kPa | 1178.53
333.15 K, 20056 kPa | 1169.28
333.15 K, 29979 kPa | 1174.02
333.15 K, 79731 kPa | 1195.25
333.15 K, 89986 kPa | 1199.09
333.15 K, 99773 kPa | 1202.59
333.16 K, 5448 kPa | 1161.99
333.16 K, 50021 kPa | 1183.09
333.16 K, 70003 kPa | 1191.43
333.17 K, 10715 kPa | 1164.66
333.17 K, 60243 kPa | 1187.44
343.14 K, 101 kPa | 1152.1
353.12 K, 6509 kPa | 1148.81
353.13 K, 8955 kPa | 1150.12
353.14 K, 2790 kPa | 1146.79
353.15 K, 101 kPa | 1145.3
353.15 K, 90011 kPa | 1186.9
353.15 K, 99259 kPa | 1190.28
353.16 K, 29979 kPa | 1160.91
353.16 K, 39909 kPa | 1165.7
353.16 K, 50013 kPa | 1170.38
353.16 K, 60153 kPa | 1174.86
353.16 K, 69979 kPa | 1179.02
353.16 K, 80426 kPa | 1183.23
353.17 K, 21342 kPa | 1156.58
363.14 K, 101 kPa | 1138.4
373.12 K, 60192 kPa | 1162.13
373.13 K, 50003 kPa | 1157.47
373.14 K, 39996 kPa | 1152.66
373.14 K, 70039 kPa | 1166.42
373.14 K, 99035 kPa | 1177.8
373.15 K, 5373 kPa | 1134.29
373.15 K, 29979 kPa | 1147.62
373.15 K, 90014 kPa | 1174.46
373.16 K, 2495 kPa | 1132.64
373.16 K, 10198 kPa | 1137.01
373.16 K, 20336 kPa | 1142.55
373.16 K, 80221 kPa | 1170.63
393.15 K, 10222 kPa | 1123.08
393.15 K, 20024 kPa | 1128.69
393.15 K, 30013 kPa | 1134.16
393.15 K, 89993 kPa | 1161.76
393.15 K, 99831 kPa | 1165.43
393.16 K, 40133 kPa | 1139.44
393.16 K, 49970 kPa | 1144.34
393.16 K, 60110 kPa | 1149.13
393.16 K, 70029 kPa | 1153.57
393.16 K, 80159 kPa | 1157.85
393.17 K, 2485 kPa | 1118.49
393.17 K, 5300 kPa | 1120.18

Source: the NIST ThermoML archive (doi:10.1016/j.jct.2011.03.019)
